According to patent US12285407B2, “Bis-indolylmethane derivatives and uses thereof” (The University of The West Indies, priority 2018, dated 2025):
Read-outs that look alike come from different tables or passages of the source.

Experiments:
[1] = test system: Streptococcus pneumoniae; assay: Checkerboard synergy (FICI) of antibiotics with SP-BIM; format: cell-based; conditions: for MIC: 24 h, antibiotic alone, read-out: MIC antibiotic only
[2] = test system: Staphylococcus aureus; assay: as above; format: cell-based; conditions: Staphylococcus aureus, Staphylococcus aureus; for MIC: 24 h, antibiotic alone, read-out: MIC antibiotic only
[3] = test system: Escherichia coli O157:H7; format: cell-based; conditions: antibiotic alone, no SP-BIM
[4] = test system: Bacillus cereus; assay: Adjuvant broth microdilution (antibiotic MIC with SP-BIM at 50 μg/mL); format: cell-based; conditions: antibiotic alone, Table 9
[5] = test system: Enterococcus faecium; assay: Checkerboard synergy (FICI) of antibiotics with SP-BIM; format: cell-based; conditions: Enterococcus faecium, Enterococcus faecium; for MIC: 24 h, antibiotic alone, read-out: MIC antibiotic only
[6] = test system: MRSA; assay: Adjuvant broth microdilution (antibiotic MIC with SP-BIM at 50 μg/mL); format: cell-based, Staphylococcus aureus; conditions: antibiotic alone
[7] = test system: Escherichia coli; assay: Checkerboard synergy (FICI) of antibiotics with SP-BIM; parameters: MIC SP-BIM 13 only / MIC in combination: Antibiotic: unit not given beside the values; conditions: for MIC: 24 h
[8] = test system: Pseudomonas aeruginosa; assay: Adjuvant broth microdilution (antibiotic MIC with SP-BIM at 50 μg/mL); format: cell-based; conditions: antibiotic alone
[9] = test system: Enterobacter cloacae; assay: as above; format: cell-based; conditions: antibiotic alone
[10] = test system: clinical strains of MRSA; assay: Kirby Bauer disc diffusion susceptibility profile; format: cell-based, Staphylococcus aureus; conditions: for Zone of clearance: 35° C., 24 hours, average n=3; for Interpretive standard (resistant/susceptible): zones vs EUCAST breakpoints (Table 30)
[11] = test system: Candida albicans; assay: Checkerboard synergy (FICI) of antibiotics with SP-BIM; parameters: MIC SP-BIM 13 only / MIC in combination: Antibiotic / MIC antibiotic only: unit not given beside the values
[12] = Streptococcus pneumonia (title: Streptococcus pyogenes), antibiotic + SP-BIM 9
[13] = Streptococcus pneumoniae, antibiotic + SP-BIM 13
[14] = SP-BIM 9 in combination with the labelled antibiotic
[15] = SP-BIM 13 in combination with the labelled antibiotic
[16] = antibiotic in combination with SP-BIM 9
[17] = antibiotic in combination with SP-BIM 13
[18] = MIC of the antibiotic in combination with SP-BIM 13

C[C@H]1c2cccc(O)c2C(=O)C2=C(O)[C@]3(O)C(=O)C(C(N)=O)=C(O)[C@@H](N(C)C)[C@@H]3[C@@H](O)[C@@H]21 [Doxycycline, doxycycline]
Interpretation [1, 12]: Additive (Additive: FICI>0.5-1.0)
Σ FIC [1, 12]: <0.75
MIC in combination, Antibiotic ([1]; Streptococcus pneumonia (title: Streptococcus pyogenes), antibiotic in combination with SP-BIM 9): 4 µg/mL
FIC of antibiotic ([1]; Streptococcus pneumonia (title: Streptococcus pyogenes), in combination with SP-BIM 9): 0.25
MIC ([1]; Streptococcus pneumoniae, Streptococcus pneumonia (title: Streptococcus pyogenes), SP-BIM 9 checkerboard): 16 µg/mL
MIC ([1]; Streptococcus pneumoniae, Streptococcus pneumoniae, SP-BIM 13 checkerboard): 16 µg/mL
FIC of SP-BIM 13 ([1]; Streptococcus pneumoniae, SP-BIM 13 in combination with the labelled antibiotic): 0.3
Interpretation [1, 13]: Synergy (Synergy: FICI≤0.5)
Σ FIC [1, 13]: <0.3
MIC in combination, Antibiotic ([1]; Streptococcus pneumoniae, antibiotic in combination with SP-BIM 13): 1 µg/mL
FIC of antibiotic ([1]; Streptococcus pneumoniae, in combination with SP-BIM 13): 0.1
MIC ([2]; SP-BIM 9 checkerboard): 8 µg/mL
MIC ([2]; SP-BIM 13 checkerboard): 8 µg/mL
FIC of SP-BIM 9 [2, 14]: 0.13
FIC of SP-BIM 13 [2, 15]: 0.3
Interpretation ([2]; antibiotic + SP-BIM 9): Synergy (Synergy: FICI≤0.5)
Σ FIC ([2]; antibiotic + SP-BIM 9): <0.38
Interpretation ([2]; antibiotic + SP-BIM 13): Synergy (Synergy: FICI≤0.5)
Σ FIC ([2]; antibiotic + SP-BIM 13): 0.4
MIC in combination, Antibiotic [2, 16]: 2.0 µg/mL
MIC in combination, Antibiotic [2, 17]: 1 µg/mL
FIC of antibiotic ([2]; in combination with SP-BIM 9): 0.25
FIC of antibiotic ([2]; in combination with SP-BIM 13): 0.1
MIC of antibiotic, No Compound [3]: 2 µg/mL
MIC of antibiotic, No Compound [4]: <0.5 µg/mL
MIC ([5]; SP-BIM 9 checkerboard): 8 µg/mL
MIC ([5]; SP-BIM 13 checkerboard): 8 µg/mL
FIC of SP-BIM 13 [5, 15]: 0.5
Interpretation ([5]; antibiotic + SP-BIM 13): Additive (Additive: FICI>0.5-1.0)
Σ FIC ([5]; antibiotic + SP-BIM 13): 0.6
MIC in combination, Antibiotic [5, 17]: 1 µg/mL
FIC of antibiotic ([5]; in combination with SP-BIM 13): 0.1
MIC ([6]; Staphylococcus aureus, Table 4, read-out: MIC of antibiotic, No compound): 8 µg/mL
MIC of antibiotic, No Compound ([6]; Table 8 (series SP-BIMs 21-29)): <0.5 µg/mL
MIC ([7]; read-out: MIC antibiotic only, Escherichia coli, antibiotic alone): 16 µg/mL
MIC ([7]; read-out: MIC antibiotic only, Escherichia coli, antibiotic alone, SP-BIM 9 checkerboard): 16 µg/mL
MIC in combination: Antibiotic [7, 18]: 2
FIC of SP-BIM 9 [7, 14]: 0.5
FIC of SP-BIM 13 [7, 15]: 0.3
Interpretation ([7]; antibiotic + SP-BIM 9): Synergy (Synergy: FICI≤0.5)
Σ FIC ([7]; antibiotic + SP-BIM 9): <1.0
Interpretation ([7]; antibiotic + SP-BIM 13): Synergy (Synergy: FICI≤0.5)
Σ FIC ([7]; antibiotic + SP-BIM 13): <0.4
MIC in combination, Antibiotic [7, 16]: 8 µg/mL
FIC of antibiotic ([7]; combination with SP-BIM 13): 0.1
FIC of antibiotic ([7]; in combination with SP-BIM 9): 0.5
MIC of antibiotic, No Compound [8]: 32 µg/mL
MIC of antibiotic, No Compound [9]: 4 µg/mL
Zone of clearance ([10]; MRSA strain 1594): 12.5 mm
Interpretive standard (resistant/susceptible) ([10]; MRSA strain 1594): R
Zone of clearance ([10]; MRSA strain 1621): 21.0 mm
Interpretive standard (resistant/susceptible) ([10]; MRSA strain 1621): S
Zone of clearance ([10]; MRSA strain 5455): 22.5 mm
Interpretive standard (resistant/susceptible) ([10]; MRSA strain 5455): S
Zone of clearance ([10]; MRSA strain 5872): 15.0 mm
Interpretive standard (resistant/susceptible) ([10]; MRSA strain 5872): R
Zone of clearance ([10]; MRSA strain 7153): 18.0 mm
Interpretive standard (resistant/susceptible) ([10]; MRSA strain 7153): R
Zone of clearance ([10]; MRSA strain 7172): 19.0 mm
Interpretive standard (resistant/susceptible) ([10]; MRSA strain 7172): R
Zone of clearance ([10]; MRSA strain 7698): 10.5 mm
Interpretive standard (resistant/susceptible) ([10]; MRSA strain 7698): R
Zone of clearance ([10]; MRSA strain 10132): 12.0 mm
Interpretive standard (resistant/susceptible) ([10]; MRSA strain 10132): R
MIC ([11]; 24 h, read-out: MIC antibiotic only): 16 µg/mL
MIC in combination: Antibiotic [11, 18]: 2
FIC of SP-BIM 13 [11, 15]: 0.5
Interpretation ([11]; antibiotic + SP-BIM 13): Additive (Additive: FICI>0.5-1.0)
Σ FIC ([11]; antibiotic + SP-BIM 13): <0.6
FIC of antibiotic ([11]; combination with SP-BIM 13): 0.1
